Data from ChEMBL document CHEMBL5653596, “A novel small molecule met inhibitor induces apoptosis in cells transformed by the oncogenic TPR-MET tyrosine kinase” (Cancer Res, 2003).
Calls of active or inactive are those of the source. No cut-off for these calls is given here.

Assays:
BaF3 [1] = experiment: Inhibition of cell growth in mouse BaF3 cells transfected with TPR-MET genes in presence of interleukin 3 at 1 uM by 3-(4,5-dimethylthiazol-2-yl)-2,5-diphenyltetrazolium bromide assay; format: functional, cell-based
BaF3 [2] = experiment: Inhibition of cell growth in mouse BaF3 cells transfected with TPR-MET genes in presence of interleukin 3 at 1 uM measured after 3 days by 3-(4,5-dimethylthiazol-2-yl)-2,5-diphenyltetrazolium bromide assay; format: functional, cell-based; settings: time 3.0 day
BaF3 [3] = experiment: Inhibition of cell growth in mouse BaF3 cells transfected with BCR-ABL genes in presence of interleukin 3 at 1 uM measured after 3 days by 3-(4,5-dimethylthiazol-2-yl)-2,5-diphenyltetrazolium bromide assay; format: functional, cell-based; settings: time 3.0 day
BaF3 [4] = experiment: Induction of cell cycle arrest in mouse BaF3 cells transfected with TPR-MET genes assessed as cells accumulation at S phase at 0.2 uM by fluorescence-activated cell sorter analysis (reference value: 45.4%); format: functional
Angiopoietin-1 receptor = Angiopoietin-1 receptor (Homo sapiens, UniProt Q02763); experiment: Inhibition of glutathione S-transferase fused Tie2 (unknown origin) catalytic activity infected in Sf9 cells using poly-Glu-Tyr (4:1) as substrate
[5] = target: Hepatocyte growth factor receptor (Mus musculus) (UniProt P16056); experiment: Inhibition of Met autophosphorylation at Tyr480 in mouse BaF3 cells at 5 uM by immunoblotting analysis; format: cell-based
Sequence of Hepatocyte growth factor receptor (Mus musculus) (P16056 whole entry, the tested form may be a part): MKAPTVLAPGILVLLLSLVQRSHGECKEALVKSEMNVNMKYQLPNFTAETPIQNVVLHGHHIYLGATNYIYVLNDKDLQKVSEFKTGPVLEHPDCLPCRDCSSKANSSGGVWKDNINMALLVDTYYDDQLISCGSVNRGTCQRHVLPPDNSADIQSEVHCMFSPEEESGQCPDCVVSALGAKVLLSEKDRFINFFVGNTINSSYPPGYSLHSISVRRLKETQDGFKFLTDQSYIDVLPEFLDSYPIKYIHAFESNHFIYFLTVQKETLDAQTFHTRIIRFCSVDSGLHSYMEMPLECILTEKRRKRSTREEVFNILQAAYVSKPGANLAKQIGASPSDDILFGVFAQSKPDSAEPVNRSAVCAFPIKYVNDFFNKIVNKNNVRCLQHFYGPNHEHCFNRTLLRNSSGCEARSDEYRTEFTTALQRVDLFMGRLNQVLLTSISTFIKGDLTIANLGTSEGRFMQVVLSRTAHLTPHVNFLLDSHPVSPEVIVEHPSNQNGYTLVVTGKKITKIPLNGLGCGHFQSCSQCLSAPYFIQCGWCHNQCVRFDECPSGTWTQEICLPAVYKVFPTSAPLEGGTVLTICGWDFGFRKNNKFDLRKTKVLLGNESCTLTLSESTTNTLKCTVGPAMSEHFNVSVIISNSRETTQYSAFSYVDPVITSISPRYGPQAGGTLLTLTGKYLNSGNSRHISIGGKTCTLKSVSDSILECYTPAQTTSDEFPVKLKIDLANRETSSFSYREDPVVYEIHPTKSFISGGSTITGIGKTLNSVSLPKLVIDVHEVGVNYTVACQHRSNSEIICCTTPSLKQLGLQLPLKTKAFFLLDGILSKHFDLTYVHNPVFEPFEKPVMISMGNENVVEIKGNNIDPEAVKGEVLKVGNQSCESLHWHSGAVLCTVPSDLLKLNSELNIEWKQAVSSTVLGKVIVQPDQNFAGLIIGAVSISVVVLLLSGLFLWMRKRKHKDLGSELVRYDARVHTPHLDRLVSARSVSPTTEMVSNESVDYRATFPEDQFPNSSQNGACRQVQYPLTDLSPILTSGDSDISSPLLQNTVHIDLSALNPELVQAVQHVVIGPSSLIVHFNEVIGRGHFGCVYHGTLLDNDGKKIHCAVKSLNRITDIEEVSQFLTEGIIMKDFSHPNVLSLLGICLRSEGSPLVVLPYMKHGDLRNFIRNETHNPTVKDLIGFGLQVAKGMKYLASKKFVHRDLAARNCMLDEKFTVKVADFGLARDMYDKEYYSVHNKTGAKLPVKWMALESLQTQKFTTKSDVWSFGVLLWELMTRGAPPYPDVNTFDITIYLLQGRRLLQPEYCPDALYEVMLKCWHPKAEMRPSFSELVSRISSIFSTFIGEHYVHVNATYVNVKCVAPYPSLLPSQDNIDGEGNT

BaF3 [6] = experiment: Inhibition of cell growth in mouse BaF3 cells transfected with TEL-PDGFbetaR genes at 1 uM measured after 18 hrs by 3-(4,5-dimethylthiazol-2-yl)-2,5-diphenyltetrazolium bromide assay; format: functional, cell-based
[7] = target: T1, Fibroblast growth factor receptor 1 (Homo sapiens, UniProt P11362); experiment: Inhibition of glutathione S-transferase fused FGFR1 (unknown origin) catalytic activity infected in Sf9 cells using poly-Glu-Tyr (4:1) as substrate at 0.02 uM relative to control
Target sequence in this assay (P11362 22-822 limits assumed): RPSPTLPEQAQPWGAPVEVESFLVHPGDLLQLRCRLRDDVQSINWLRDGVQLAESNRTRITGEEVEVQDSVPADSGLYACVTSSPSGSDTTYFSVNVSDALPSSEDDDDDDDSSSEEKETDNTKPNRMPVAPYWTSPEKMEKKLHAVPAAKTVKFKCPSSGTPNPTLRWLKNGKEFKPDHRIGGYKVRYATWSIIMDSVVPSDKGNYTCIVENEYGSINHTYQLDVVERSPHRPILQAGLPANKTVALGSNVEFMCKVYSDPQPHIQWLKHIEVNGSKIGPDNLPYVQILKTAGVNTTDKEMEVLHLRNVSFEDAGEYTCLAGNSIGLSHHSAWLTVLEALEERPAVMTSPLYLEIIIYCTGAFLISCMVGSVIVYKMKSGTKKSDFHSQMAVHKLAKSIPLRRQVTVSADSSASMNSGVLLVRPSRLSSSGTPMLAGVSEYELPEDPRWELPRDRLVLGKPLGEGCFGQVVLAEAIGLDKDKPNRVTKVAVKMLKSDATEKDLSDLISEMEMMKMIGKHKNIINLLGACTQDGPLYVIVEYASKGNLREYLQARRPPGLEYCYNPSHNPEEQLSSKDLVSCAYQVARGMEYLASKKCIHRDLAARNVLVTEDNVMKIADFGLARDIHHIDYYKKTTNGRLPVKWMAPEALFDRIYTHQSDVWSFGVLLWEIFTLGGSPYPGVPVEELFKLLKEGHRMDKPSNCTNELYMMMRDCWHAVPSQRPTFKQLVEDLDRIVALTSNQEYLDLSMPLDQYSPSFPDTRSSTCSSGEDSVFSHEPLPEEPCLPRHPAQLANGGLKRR

BaF3 [8] = experiment: Inhibition of migration of mouse BaF3 cells at 5 uM measured after 4 hrs by spontaneous transwell migration assay relative to control; format: functional
BaF3 [9] = experiment: Induction of apoptosis in mouse BaF3 cells transfected with TPR-MET genes assessed as total apoptotic cells at 1 uM measured after 18 hrs by annexin V and propidium iodide staining based flow cytometry assay (reference value: 5%); format: functional
[10] = target: Hepatocyte growth factor receptor (Mus musculus) (UniProt P16056); experiment: Inhibition of Met autophosphorylation at Tyr361/365/366 in mouse BaF3 cells at 5 uM by immunoblotting analysis; format: cell-based
[11] = target: Proto-oncogene tyrosine-protein kinase Src (Homo sapiens, UniProt P12931); experiment: Inhibition of glutathione S-transferase fused c-Src (unknown origin) catalytic activity infected in Sf9 cells using poly-Glu-Tyr (4:1) as substrate
Sequence of Proto-oncogene tyrosine-protein kinase Src (P12931 2-536 limits assumed): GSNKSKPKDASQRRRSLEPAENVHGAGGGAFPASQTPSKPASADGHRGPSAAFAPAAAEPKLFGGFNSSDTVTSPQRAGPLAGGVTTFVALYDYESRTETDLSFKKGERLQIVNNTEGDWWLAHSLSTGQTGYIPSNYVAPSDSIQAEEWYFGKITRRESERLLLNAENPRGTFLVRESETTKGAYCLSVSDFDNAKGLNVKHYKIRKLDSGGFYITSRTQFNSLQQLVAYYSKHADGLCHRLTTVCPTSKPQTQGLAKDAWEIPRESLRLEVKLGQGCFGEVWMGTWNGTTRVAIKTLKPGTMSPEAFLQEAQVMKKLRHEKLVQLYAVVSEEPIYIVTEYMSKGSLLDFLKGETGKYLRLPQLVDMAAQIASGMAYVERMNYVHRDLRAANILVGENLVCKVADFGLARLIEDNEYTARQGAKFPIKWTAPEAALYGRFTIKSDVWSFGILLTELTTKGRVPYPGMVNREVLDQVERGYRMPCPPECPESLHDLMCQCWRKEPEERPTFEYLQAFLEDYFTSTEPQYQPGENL

BaF3 [12] = experiment: Induction of apoptosis in mouse BaF3 cells transfected with TPR-MET genes assessed as early apoptotic cells at 1 uM measured after 18 hrs by annexin V and propidium iodide staining based flow cytometry assay (reference value: 2.5%); format: functional
BaF3 [13] = experiment: Inhibition of Serine phosphorylation of AKT at Ser473 in mouse BaF3 cells transfected with TPR-MET genes at 0.2 to 5 uM by immunoblotting analysis; format: cell-based; settings: dose 0.2-5 µM
[14] = target: Epidermal growth factor receptor (Homo sapiens, UniProt P00533); experiment: Inhibition of glutathione S-transferase fused EGFR (unknown origin) catalytic activity infected in Sf9 cells using poly-Glu-Tyr (4:1) as substrate
BaF3 [15] = experiment: Inhibition of cell growth in mouse BaF3 cells transfected with TEL-JAK2 genes at 1 uM measured after 18 hrs by 3-(4,5-dimethylthiazol-2-yl)-2,5-diphenyltetrazolium bromide assay; format: functional, cell-based
NCI-H69 = experiment: Growth inhibition of human NCI-H69 cells in presence of HGF measured after 72 hrs by 3-(4,5 dimethylthiazol-2-yl)-2,5-diphenyltetrazolium bromide assay; format: functional, cell-based
BaF3 [16] = experiment: Induction of cell cycle arrest in mouse BaF3 cells transfected with TPR-MET genes assessed as cells accumulation at S phase at 5 uM by fluorescence-activated cell sorter analysis (reference value: 45.4%); format: functional
BaF3 [17] = experiment: Inhibition of migration of mouse BaF3 cells measured after 4 hrs by spontaneous transwell migration assay; format: functional, cell-based; settings: dose 0.2-5 µM
BaF3 [18] = experiment: Inhibition of cell growth in mouse BaF3 cells transfected with TPR-MET genes by 3-(4,5-dimethylthiazol-2-yl)-2,5-diphenyltetrazolium bromide assay; format: functional, cell-based
BaF3 [19] = experiment: Inhibition of cell growth in mouse BaF3 cells transfected with BCR-ABL genes at 1 uM measured after 18 hrs by 3-(4,5-dimethylthiazol-2-yl)-2,5-diphenyltetrazolium bromide assay; format: functional, cell-based
[20] = target: Cyclin-dependent kinase 2 (Homo sapiens, UniProt P24941); experiment: Inhibition of glutathione S-transferase fused CDK2 (unknown origin) catalytic activity infected in Sf9 cells using poly-Glu-Tyr (4:1) as substrate
BaF3 [21] = experiment: Induction of cell cycle arrest in mouse BaF3 cells transfected with TPR-MET genes assessed as cells accumulation at G1 phase at 5 uM by fluorescence-activated cell sorter analysis (reference value: 42.4%); format: functional
BaF3 [22] = experiment: Inhibition of cell growth in mouse BaF3 cells transfected with TPR-MET genes at 0.01 to 10 uM by 3-(4,5-dimethylthiazol-2-yl)-2,5-diphenyltetrazolium bromide assay; format: functional, cell-based; settings: dose 0.01-10 µM
[23] = target: Platelet-derived growth factor receptor beta (Homo sapiens, UniProt P09619); experiment: Inhibition of glutathione S-transferase fused PDGFbetaR (unknown origin) catalytic activity infected in Sf9 cells using poly-Glu-Tyr (4:1) as substrate
BaF3 [24] = experiment: Inhibition of cell growth in mouse BaF3 cells transfected with BCR-ABL genes in presence of interleukin 3 at 1 uM measured after 18 hrs by 3-(4,5-dimethylthiazol-2-yl)-2,5-diphenyltetrazolium bromide assay; format: functional, cell-based
NCI-H345 = experiment: Growth inhibition of human NCI-H345 cells in presence of HGF measured after 72 hrs by 3-(4,5 dimethylthiazol-2-yl)-2,5-diphenyltetrazolium bromide assay; format: functional, cell-based
[25] = target: T2, Hepatocyte growth factor receptor (Homo sapiens, UniProt P08581); experiment: Inhibition of glutathione S-transferase fused Met (unknown origin) catalytic activity infected in Sf9 cells using poly-Glu-Tyr (4:1) as substrate
T2 sequence (P08581 whole entry, the tested form may be a part): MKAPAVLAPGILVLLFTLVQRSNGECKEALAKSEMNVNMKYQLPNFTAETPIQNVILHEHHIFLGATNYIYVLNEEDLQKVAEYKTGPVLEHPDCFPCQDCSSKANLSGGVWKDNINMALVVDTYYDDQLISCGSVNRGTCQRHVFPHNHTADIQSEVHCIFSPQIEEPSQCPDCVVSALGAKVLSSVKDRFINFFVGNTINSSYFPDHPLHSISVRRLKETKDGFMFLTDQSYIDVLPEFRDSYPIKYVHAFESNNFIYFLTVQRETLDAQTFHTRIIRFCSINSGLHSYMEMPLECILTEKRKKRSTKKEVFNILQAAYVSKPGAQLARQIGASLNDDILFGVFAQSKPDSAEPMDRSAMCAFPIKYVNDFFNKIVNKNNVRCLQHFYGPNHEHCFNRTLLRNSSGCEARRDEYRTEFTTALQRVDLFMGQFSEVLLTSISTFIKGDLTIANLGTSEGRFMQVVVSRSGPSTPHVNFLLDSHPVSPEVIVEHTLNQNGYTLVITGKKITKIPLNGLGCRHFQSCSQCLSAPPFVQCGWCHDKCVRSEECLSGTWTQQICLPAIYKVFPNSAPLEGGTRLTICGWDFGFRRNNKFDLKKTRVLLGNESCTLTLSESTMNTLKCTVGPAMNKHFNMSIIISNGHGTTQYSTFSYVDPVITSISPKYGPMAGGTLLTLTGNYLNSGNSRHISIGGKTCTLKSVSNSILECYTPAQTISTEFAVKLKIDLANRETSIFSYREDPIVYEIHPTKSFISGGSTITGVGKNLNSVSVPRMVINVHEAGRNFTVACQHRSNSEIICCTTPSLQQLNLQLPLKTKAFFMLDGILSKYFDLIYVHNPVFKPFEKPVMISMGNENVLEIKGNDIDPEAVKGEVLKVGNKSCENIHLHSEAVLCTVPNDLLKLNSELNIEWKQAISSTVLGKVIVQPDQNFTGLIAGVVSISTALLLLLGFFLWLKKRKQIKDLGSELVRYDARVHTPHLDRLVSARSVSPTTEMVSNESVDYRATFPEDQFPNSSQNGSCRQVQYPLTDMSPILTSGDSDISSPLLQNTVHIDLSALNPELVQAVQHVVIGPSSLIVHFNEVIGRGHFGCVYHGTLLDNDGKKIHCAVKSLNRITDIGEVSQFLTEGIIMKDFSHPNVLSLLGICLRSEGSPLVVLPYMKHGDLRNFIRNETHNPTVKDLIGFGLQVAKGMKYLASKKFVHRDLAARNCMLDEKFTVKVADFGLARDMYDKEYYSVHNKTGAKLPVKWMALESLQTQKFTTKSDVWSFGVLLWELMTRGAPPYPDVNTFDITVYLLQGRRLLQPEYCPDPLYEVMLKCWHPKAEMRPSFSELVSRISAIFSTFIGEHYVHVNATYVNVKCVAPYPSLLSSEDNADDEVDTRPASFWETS

BaF3 [26] = experiment: Induction of cell cycle arrest in mouse BaF3 cells transfected with TPR-MET genes assessed as cells accumulation at G1 phase at 0.2 uM by fluorescence-activated cell sorter analysis (reference value: 42.4%); format: functional
BaF3 [27] = experiment: Inhibition of cell growth in mouse BaF3 cells in presence of interleukin 3 at 1 uM measured after 3 days by 3-(4,5-dimethylthiazol-2-yl)-2,5-diphenyltetrazolium bromide assay; format: functional, cell-based; settings: time 3.0 day
[28] = target: T1, Fibroblast growth factor receptor 1; experiment: Inhibition of glutathione S-transferase fused FGFR1 (unknown origin) catalytic activity infected in Sf9 cells using poly-Glu-Tyr (4:1) as substrate
Target sequence in this assay (P11362 whole entry, the tested form may be a part): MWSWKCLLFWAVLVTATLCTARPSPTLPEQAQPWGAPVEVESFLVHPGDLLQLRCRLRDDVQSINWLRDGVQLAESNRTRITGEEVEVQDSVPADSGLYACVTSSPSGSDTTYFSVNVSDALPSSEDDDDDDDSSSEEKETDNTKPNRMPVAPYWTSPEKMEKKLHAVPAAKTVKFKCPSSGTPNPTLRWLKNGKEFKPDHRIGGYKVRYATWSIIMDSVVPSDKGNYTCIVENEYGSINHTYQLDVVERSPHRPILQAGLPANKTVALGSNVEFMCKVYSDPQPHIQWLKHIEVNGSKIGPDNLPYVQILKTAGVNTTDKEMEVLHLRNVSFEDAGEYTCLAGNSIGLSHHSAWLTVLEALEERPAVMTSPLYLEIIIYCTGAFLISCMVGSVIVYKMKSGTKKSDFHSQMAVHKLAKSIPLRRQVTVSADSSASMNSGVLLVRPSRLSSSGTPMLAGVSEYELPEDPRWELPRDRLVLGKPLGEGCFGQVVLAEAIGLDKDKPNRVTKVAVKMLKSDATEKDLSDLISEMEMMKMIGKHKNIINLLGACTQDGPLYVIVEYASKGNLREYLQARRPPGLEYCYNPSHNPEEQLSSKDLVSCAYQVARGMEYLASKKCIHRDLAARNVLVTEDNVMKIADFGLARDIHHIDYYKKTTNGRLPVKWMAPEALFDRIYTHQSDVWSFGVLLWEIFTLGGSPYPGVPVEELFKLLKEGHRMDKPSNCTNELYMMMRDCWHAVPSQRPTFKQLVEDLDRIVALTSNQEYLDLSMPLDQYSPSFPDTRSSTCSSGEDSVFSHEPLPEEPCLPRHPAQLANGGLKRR

BaF3 [29] = experiment: Induction of cell cycle arrest in mouse BaF3 cells transfected with TPR-MET genes assessed as cells accumulation at G2/M phase at 1 uM by fluorescence-activated cell sorter analysis (reference value: 12.2%); format: functional
BaF3 [30] = experiment: Inhibition of cell growth in mouse BaF3 cells transfected with TEL-ABL genes at 1 uM measured after 18 hrs by 3-(4,5-dimethylthiazol-2-yl)-2,5-diphenyltetrazolium bromide assay; format: functional, cell-based
BaF3 [31] = experiment: Induction of cell cycle arrest in mouse BaF3 cells transfected with TPR-MET genes assessed as cells accumulation at G2/M phase at 5 uM by fluorescence-activated cell sorter analysis (reference value: 12.2%); format: functional
BaF3 [32] = experiment: Induction of apoptosis in mouse BaF3 cells transfected with TPR-MET genes assessed as necrotic cells at 1 uM measured after 18 hrs by annexin V and propidium iodide staining based flow cytometry assay (reference value: 0.1%); format: functional
BaF3 [33] = experiment: Induction of apoptosis in mouse BaF3 cells transfected with TPR-MET genes assessed as viable cells at 1 uM measured after 18 hrs by annexin V and propidium iodide staining based flow cytometry assay (reference value: 93.6%); format: functional; settings: read-out: Activity
BaF3 [34] = experiment: Inhibition of […] phosphorylation of AKT at […] in mouse BaF3 cells transfected with TPR-MET genes at 0.2 to 5 uM by immunoblotting analysis; format: cell-based; settings: dose 0.2-5 µM
BaF3 [35] = experiment: Inhibition of Serine phosphorylation of GSK3beta at Ser21/9 in mouse BaF3 cells transfected with TPR-MET genes at 0.2 to 5 uM by immunoblotting analysis; format: cell-based; settings: dose 0.2-5 µM
BaF3 [36] = experiment: Induction of cell cycle arrest in mouse BaF3 cells transfected with TPR-MET genes assessed as cells accumulation at G2/M phase at 0.2 uM by fluorescence-activated cell sorter analysis (reference value: 12.2%); format: functional
[37] = target: Vascular endothelial growth factor receptor 2 (Homo sapiens, UniProt P35968); experiment: Inhibition of glutathione S-transferase fused Flk1 (unknown origin) catalytic activity infected in Sf9 cells using poly-Glu-Tyr (4:1) as substrate
BaF3 [38] = experiment: Inhibition of migration of mouse BaF3 cells at 1 uM measured after 4 hrs by spontaneous transwell migration assay relative to control; format: functional
BaF3 [39] = experiment: Induction of cell cycle arrest in mouse BaF3 cells transfected with TPR-MET genes assessed as cells accumulation at G1 phase at 1 uM by fluorescence-activated cell sorter analysis (reference value: 42.4%); format: functional
BaF3 [40] = experiment: Inhibition of cell growth in mouse BaF3 cells transfected with TPR-MET genes at 1 uM measured after 3 days by 3-(4,5-dimethylthiazol-2-yl)-2,5-diphenyltetrazolium bromide assay; format: functional; settings: BaF3, 72 h, time 3 day
[41] = target: T2, Hepatocyte growth factor receptor; experiment: Inhibition of HGF-dependent Met (unknown origin) phosphorylation
[42] = target: Hepatocyte growth factor receptor (Mus musculus) (UniProt P16056); experiment: Inhibition of Met autophosphorylation at Tyr496 in mouse BaF3 cells at 5 uM by immunoblotting analysis; format: cell-based
BaF3 [43] = experiment: Reduction in tyrosine phosphorylation of cellular proteins in mouse BaF3 cells transfected with TPR-MET genes by immunoblotting analysis; format: functional, cell-based; settings: dose 0.2-5 µM
BaF3 [44] = experiment: Induction of apoptosis in mouse BaF3 cells transfected with TPR-MET genes assessed as late apoptotic cells at 1 uM measured after 18 hrs by annexin V and propidium iodide staining based flow cytometry assay (reference value: 3.8%); format: functional
BaF3 [45] = experiment: Inhibition of Serine phosphorylation of FKHR at Ser256 in mouse BaF3 cells transfected with TPR-MET genes at 0.2 to 5 uM by immunoblotting analysis; format: cell-based; settings: dose 0.2-5 µM
BaF3 [46] = experiment: Induction of cell cycle arrest in mouse BaF3 cells transfected with TPR-MET genes assessed as cells accumulation at S phase at 1 uM by fluorescence-activated cell sorter analysis (reference value: 45.4%); format: functional

Q: Which results are given for `Cc1[nH]c(/C=C2/C(=O)Nc3ccc(S(=O)(=O)N(C)c4cccc(Cl)c4)cc32)c(C)c1C(=O)N1CCN(C)CC1`?
A: inhibition (BaF3 [1]): Active; inhibition (BaF3 [2]): inactive; inhibition (BaF3 [3]): inactive; Activity (BaF3 [4]): 40%; IC50 (Angiopoietin-1 receptor): > 100 µM; inhibition [5]: Active; inhibition (BaF3 [6]): inactive; inhibition [7]: 2%; inhibition at 5 µM (BaF3 [8]): 80%; Activity (BaF3 [9]): 24%; inhibition [10]: Active; IC50 [11]: > 10 µM; Activity (BaF3 [12]): 11.3%; inhibition (BaF3 [13]): Active; IC50 [14]: > 100 µM; inhibition (BaF3 [15]): inactive; inhibition (NCI-H69): Dose-Dependent Effect; Activity (BaF3 [16]): 21.1%; inhibition (BaF3 [17]): Dose-Dependent Effect; IC50 (BaF3 [18]): < 3 µM; inhibition (BaF3 [19]): inactive; IC50 [20]: > 10 µM; Activity (BaF3 [21]): 13.4%; inhibition (BaF3 [22]): Dose-Dependent Effect; IC50 [23]: > 20 µM; inhibition (BaF3 [24]): inactive; inhibition (NCI-H345): Dose-Dependent Effect; IC50 [25]: 0.02 µM; Activity (BaF3 [26]): 46.6%; inhibition (BaF3 [27]): inactive; IC50 [28]: 9.7 µM; Activity (BaF3 [29]): 6%; inhibition (BaF3 [30]): inactive; Activity (BaF3 [31]): 8.3%; Activity (BaF3 [32]): 1.1%; viability at 1 µM (BaF3 [33]): 70.3%; inhibition (BaF3 [34]): Active; inhibition (BaF3 [35]): Active; Activity (BaF3 [36]): 13.4%; IC50 [37]: 1.3 µM; inhibition at 1 µM (BaF3 [38]): 44.8%; Activity (BaF3 [39]): 40%; inhibition at 1 µM (BaF3 [40]): 100%; IC50 [41]: 1 µM; inhibition [42]: Active; inhibition (BaF3 [43]): Dose-Dependent Effect; Activity (BaF3 [44]): 17.2%; inhibition (BaF3 [45]): Active; Activity (BaF3 [46]): 29.8%
